Data: patent US8569509B2, “Thiazole-4-carboxylic acid esters and thioesters as plant protection agents” (priority 2008, dated 2013)

Experiment: log P determination (HPLC, calibration with unbranched alkan-2-ones)
Format: physicochemical
Details: * LC-MS determination in the acidic range at pH 2.7, 0.1% aqueous formic acid and acetonitrile, linear gradient 10% to 95% acetonitrile
Protocol: The calibration is carried out using unbranched alkan-2-ones (having 3 to 16 carbon atoms) with known log P values (determination of the log P values by the retention times using linear interpolation between two successive alkanones). The lambda-maX values were determined in the maxima of the chromatographic signals using the UV spectra from 200 nm to 400 nm.
In the case of `Cc1cc(C)n(C(C)(C)C(=O)N2CCC(c3nc(C(=O)OC4CCc5ccccc54)cs3)CC2)n1` (stereo not drawn) [compound 376], the log p is reported as 3.68*. For `Cc1cc(C)n(C(C)(C)C(=O)N2CCC(c3nc(C(=O)OCc4ccccc4)cs3)CC2)n1` [compound 379], the log p was 3.19*. With `Cc1cc(C)n(C(C)(C)C(=O)N2CCC(c3nc(C(=O)OCc4cccs4)cs3)CC2)n1` [compound 443] the log p was 3.06*. In the case of `Cc1cc(C)n(C(C)(C)C(=O)N2CCC(c3nc(C(=O)Oc4cccc5ccccc45)cs3)CC2)n1` [compound 377], the log p is reported as 3.82*.

Same assay, conditions: * LC-MS determination in the acidic range at pH 2.7, 0.1% aqueous formic acid and acetonitrile, linear gradient 10% to 95% acetonitrile, reversed-phase C 18
With `Cc1c(Cl)c(C(F)(F)F)nn1CC(=O)N1CCC(c2nc(C(=O)OCc3ccc(F)cc3)cs2)CC1` [compound 155] the log p was 3.73*. With `Cc1c(Cl)c(C(F)(F)F)nn1CC(=O)N1CCC(c2nc(C(=O)Oc3cccc4ccccc34)cs2)CC1` [compound 152] the log p was 4.17*. In the case of `Cc1c(Cl)c(C(F)(F)F)nn1CC(=O)N1CCC(c2nc(C(=O)OCc3ccccc3)cs2)CC1` [compound 154], the log p is reported as 3.73*. In the case of `O=C(Oc1ccccc1)c1csc(C2CCN(C(=O)Cn3ccc(C(F)(F)F)n3)CC2)n1` [compound 127], the log p is reported as 2.85*. In the case of `Cc1c(Cl)c(C(F)(F)F)nn1CC(=O)N1CCC(c2nc(C(=O)OC3CCCc4ccccc43)cs2)CC1` (stereo not drawn) [compound 149], the log p is reported as 4.40*. For `Cc1c(Cl)c(C(F)(F)F)nn1CC(=O)N1CCC(c2nc(C(=O)OC3CCc4ccccc43)cs2)CC1` (stereo not drawn) [compound 151], the log p was 4.17*.

Same assay, conditions: * LC-MS determination in the acidic range at pH 2.7, mobile phases 0.1% aqueous formic acid and acetonitrile (0.1% formic acid), linear gradient 10% to 95% acetonitrile; reversed-phase C 18 HPLC
With `Cc1cc(C(F)(F)F)nn1CC(=O)N1CCC(c2nc(C(=O)Oc3cccc4ocnc34)cs2)CC1` [compound 809] the log p was 2.81*. For `Cc1cc(C(F)(F)F)nn1CC(=O)N1CCC(c2nc(C(=O)Oc3cccc4ncccc34)cs2)CC1` [compound 807], the log p was 2.59*. With `Cc1cc(C(F)(F)F)nn1CC(=O)N1CCC(c2nc(C(=O)OCc3c(F)cc(F)cc3F)cs2)CC1` [compound 835] the log p was 3.53*. With `Cc1cc(C(F)(F)F)nn1CC(=O)N1CCC(c2nc(C(=O)OC(C)c3cccc4ccccc34)cs2)CC1` (stereo not drawn) [compound 785] the log p was 4.16*. In the case of `Cc1cc(C(F)(F)F)nn1CC(=O)N1CCC(c2nc(C(=O)OC(c3ccccc3)c3ccccc3)cs2)CC1` [compound 808], the log p is reported as 4.17*. With `CC(C)(C)c1cc(C(F)(F)C(F)(F)F)nn1CC(=O)N1CCC(c2nc(C(=O)OCC3CCCCC3)cs2)CC1` [compound 850] the log p was 4.94*. With `Cc1cc(C(F)(F)F)nn1CC(=O)N1CCC(c2nc(C(=O)OC3Cc4ccccc4C3)cs2)CC1` [compound 791] the log p was 3.67*. With `Cc1cc(C(F)(F)F)nn1CC(=O)N1CCC(c2nc(C(=O)OC(C)c3ccc4ccccc4c3)cs2)CC1` (stereo not drawn) [compound 786] the log p was 4.18*. For `Cc1cc(C(F)(F)F)nn1CC(=O)N1CCC(c2nc(C(=O)OC3CCCCCC3)cs2)CC1` [compound 788], the log p was 4.09*. In the case of `CCCCC(CC)COC(=O)c1csc(C2CCN(C(=O)C(C)(C)n3nc(C)cc3C)CC2)n1` (stereo not drawn) [compound 806], the log p is reported as 5.08*. In the case of `Cc1cc(C(F)(F)F)nn1CC(=O)N1CCC(c2nc(C(=O)OCc3cccnc3)cs2)CC1` [compound 780], the log p is reported as 1.74*. In the case of `Cc1cc(C(F)(F)F)nn1CC(=O)N1CCC(c2nc(C(=O)OCc3ccc4ccccc4c3)cs2)CC1` [compound 784], the log p is reported as 3.92*.

Same assay, conditions: * LC-MS determination in the acidic range, pH 2.7, 0.1% aqueous formic acid and acetonitrile, linear gradient 10% to 95% acetonitrile
For `Cc1cc(C(F)(F)F)nn1CC(=O)N1CCC(c2nc(C(=O)OC3CCCC3)cs2)CC1` [compound 3], the log p was 3.40*. For `CC(OC(=O)c1csc(C2CCN(C(=O)Cn3ccc(C(F)(F)F)n3)CC2)n1)c1ccc(F)cc1` (stereo not drawn) [compound 124], the log p was 3.18*. For `Cc1cc(C(F)(F)F)nn1CC(=O)N1CCC(c2nc(C(=O)OCc3ccc(F)cc3)cs2)CC1` [compound 12], the log p was 3.35*. In the case of `Cc1cc(C(F)(F)F)nn1CC(=O)N1CCC(c2nc(C(=O)OCCc3ccc(F)cc3)cs2)CC1` [compound 43], the log p is reported as 3.55*. For `Cc1cc(C(F)(F)F)nn1CC(=O)N1CCC(c2nc(C(=O)OC3CCc4ccccc43)cs2)CC1` (stereo not drawn) [compound 8], the log p was 3.76*. In the case of `COc1ccc(COC(=O)c2csc(C3CCN(C(=O)Cn4nc(C(F)(F)F)cc4C)CC3)n2)cc1` [compound 19], the log p is reported as 3.30*. In the case of `O=C(OC1CCc2ccccc21)c1csc(C2CCN(C(=O)Cn3ccc(C(F)(F)F)n3)CC2)n1` (stereo not drawn) [compound 91], the log p is reported as 3.37*. In the case of `Cc1cc(C(F)(F)F)nn1CC(=O)N1CCC(c2nc(C(=O)OC(C)c3ccc(F)cc3)cs2)CC1` (stereo not drawn) [compound 41], the log p is reported as 3.60*. For `Cc1cc(C(F)(F)F)nn1CC(=O)N1CCC(c2nc(C(=O)OCc3ccc([N+](=O)[O-])cc3)cs2)CC1` [compound 28], the log p was 3.22*. For `Cc1cc(C(F)(F)F)nn1CC(=O)N1CCC(c2nc(C(=O)OCc3ccc(Cl)cc3Cl)cs2)CC1` [compound 20], the log p was 3.69*.

Same assay, conditions: pH 2.7; read-out: log P (pH 2.7)
In the case of `O=C(Oc1cccc2ccccc12)c1csc(C2CCN(C(=O)Cn3nc(C(F)F)cc3C(F)F)CC2)n1` [compound 813, 1-Naphthyl 2-(1-{[3,5-bis(difluoromethyl)-1H-pyrazol-1-yl]acetyl}piperidin-4-yl)-1,3-thiazole-4-carboxylate], the chromatographic logP is reported as 3.64. Compound `CCOC(=O)c1csc(C2CCN(C(=O)Cn3ccc(C(F)(F)F)n3)CC2)n1` [IV-2, Ethyl 2-(1-{[3-(trifluoromethyl)-1H-pyrazol-1-yl]acetyl}piperidin-4-yl)-1,3-thiazole-4-carboxylate] has a chromatographic logP of 2.41. In the case of `O=C(OC1CCCCC1)c1csc(C2CCN(C(=S)Cn3nc(C(F)F)cc3C(F)F)CC2)n1` [compound 854, Cyclohexyl 2-(1-{2-[3,5-bis(difluoromethyl)-1H-pyrazol-1-yl]ethanethioyl}piperidin-4-yl)-1,3-thiazole-4-carboxylate], the chromatographic logP is reported as 4.23. For `CC(C)(C)OC(=O)N1CCC(c2nc(C(=O)Oc3cccc4ccccc34)cs2)CC1` [IX-2, tert-Butyl 4-{4-[(1-naphthyloxy)carbonyl]-1,3-thiazol-2-yl}piperidine-1-carboxylate], the chromatographic logP was 4.5. `Cc1cc(C(F)(F)F)nn1CC(=O)N1CCC(c2nc(C(=O)OC3CCCc4ccccc43)cs2)CC1` (stereo not drawn) [compound 224, 1,2,3,4-Tetrahydronaphthalen-1-yl 2-(1-{[5-methyl-3-(trifluoromethyl)-1H-pyrazol-1-yl]acetyl}piperidin-4-yl)-1,3-thiazole-4-carboxylate] gave a chromatographic logP of 4.01. In the case of `CC(C)(C)c1cc(C(F)(F)C(F)(F)F)[nH]n1` [XVIII-1, 3-tert-Butyl-5-(pentafluoroethyl)-1H-pyrazole], the chromatographic logP is reported as 3.23. For `Cc1cc(C(F)(F)F)nn1CC(=O)N1CCC(c2nc(C(=O)Sc3cccc4ccccc34)cs2)CC1` [compound 77, S-1-Naphthyl 2-(1-{[5-methyl-3-(trifluoromethyl)-1H-pyrazol-1-yl]acetyl}piperidin-4-yl)-1,3-thiazole-4-carbothioate], the chromatographic logP was 4.22. In the case of `CCOC(=O)c1csc(C2CCN(C(=O)Cn3nc(C(F)(F)F)c(Cl)c3C)CC2)n1` [IV-6, Ethyl 2-(1-{[4-chloro-5-methyl-3-(trifluoromethyl)-1H-pyrazol-1-yl]acetyl}piperidin-4-yl)-1,3-thiazole-4-carboxylate], the chromatographic logP is reported as 3.17. Compound `CCOC(=O)c1csc(C2CCN(C(=O)Cn3nc(C(F)(F)F)cc3C)CC2)n1` [IV-5, Ethyl 2-(1-{[5-methyl-3-(trifluoromethyl)-1H-pyrazol-1-yl]acetyl}piperidin-4-yl)-1,3-thiazole-4-carboxylate] has a chromatographic logP of 2.62. With `Cc1c(Cl)c(C(F)(F)F)nn1CC(=O)N1CCC(c2nc(C(=O)O)cs2)CC1` [III-5, 2-(1-{[4-Chloro-5-methyl-3-(trifluoromethyl)-1H-pyrazol-1-yl]acetyl}piperidin-4-yl)-1,3-thiazole-4-carboxylic acid] the chromatographic logP was 2.26. For `Cc1cc(C(F)(F)F)nn1CC(=O)N1CCC(c2nc(C(=O)OCc3ccccc3Br)cs2)CC1` [compound 820, 2-Bromobenzyl 2-(1-{[5-methyl-3-(trifluoromethyl)-1H-pyrazol-1-yl]acetyl}piperidin-4-yl)-1,3-thiazole-4-carboxylate], the chromatographic logP was 3.8. `Cc1cc(C(F)(F)F)nn1CC(=O)N1CCC(c2nc(C(=O)SC3CCCCC3)cs2)CC1` [compound 76, S-Cyclohexyl 2-(1-{[5-methyl-3-(trifluoromethyl)-1H-pyrazol-1-yl]acetyl}piperidin-4-yl)-1,3-thiazole-4-carbothioate] showed a chromatographic logP of 4.51. With `Cc1cc(C(F)(F)F)nn1CC(=O)N1CCC(c2nc(C(=O)O)cs2)CC1` [III-4, 2-(1-{[5-Methyl-3-(trifluoromethyl)-1H-pyrazol-1-yl]acetyl}piperidin-4-yl)-1,3-thiazole-4-carboxylic acid] the chromatographic logP was 1.82. In the case of `O=C(OC1CCCCC1)c1csc(C2CCN(C(=O)Cn3nc(C(F)F)cc3C(F)F)CC2)n1` [compound 811, Cyclohexyl 2-(1-{[3,5-bis(difluoromethyl)-1H-pyrazol-1-yl]acetyl}piperidin-4-yl)-1,3-thiazole-4-carboxylate], the chromatographic logP is reported as 3.64. Compound `CCOC(=O)Cn1nc(C(F)(F)F)cc1C(C)(C)C` [XVI-2, Ethyl [5-tert-butyl-3-(trifluoromethyl)-1H-pyrazol-1-yl]acetate] has a chromatographic logP of 3.48.

Same assay, conditions: reversed-phase (C18) HPLC column; * LC-MS determination in the acidic range, pH 2.7, 0.1% aqueous formic acid / acetonitrile gradient; read-out: log p
`Cc1cc(C(F)(F)F)nn1CC(=O)N1CCC(c2nc(C(=O)OC3CCCc4ccccc43)cs2)CC1` (stereo not drawn) [compound 224, 1,2,3,4-Tetrahydronaphthalen-1-yl 2-(1-{[5-methyl-3-(trifluoromethyl)-1H-pyrazol-1-yl]acetyl}piperidin-4-yl)-1,3-thiazole-4-carboxylate] showed a chromatographic logP of 4.01.

Same assay, conditions: reversed-phase (C18) HPLC column; * LC-MS determination in the acidic range, pH 2.7, 0.1% aqueous formic acid and acetonitrile, linear gradient 10% to 95% acetonitrile; read-out: log p
`Cc1cc(C(F)(F)F)nn1CC(=O)N1CCC(c2nc(C(=O)Sc3cccc4ccccc34)cs2)CC1` [compound 77, S-1-Naphthyl 2-(1-{[5-methyl-3-(trifluoromethyl)-1H-pyrazol-1-yl]acetyl}piperidin-4-yl)-1,3-thiazole-4-carbothioate] showed a chromatographic logP of 4.22. Compound `Cc1cc(C(F)(F)F)nn1CC(=O)N1CCC(c2nc(C(=O)SC3CCCCC3)cs2)CC1` [compound 76, S-Cyclohexyl 2-(1-{[5-methyl-3-(trifluoromethyl)-1H-pyrazol-1-yl]acetyl}piperidin-4-yl)-1,3-thiazole-4-carbothioate] has a chromatographic logP of 4.51.

Same assay, conditions: reversed-phase C18 HPLC column; * LC-MS determination in the acidic range at pH 2.7, mobile phases 0.1% aqueous formic acid and acetonitrile (0.1% formic acid), linear gradient 10% to 95% acetonitrile; reversed-phase C 18 HPLC; read-out: log p
`O=C(Oc1cccc2ccccc12)c1csc(C2CCN(C(=O)Cn3nc(C(F)F)cc3C(F)F)CC2)n1` [compound 813, 1-Naphthyl 2-(1-{[3,5-bis(difluoromethyl)-1H-pyrazol-1-yl]acetyl}piperidin-4-yl)-1,3-thiazole-4-carboxylate] gave a chromatographic logP of 3.64. In the case of `O=C(OC1CCCCC1)c1csc(C2CCN(C(=S)Cn3nc(C(F)F)cc3C(F)F)CC2)n1` [compound 854, Cyclohexyl 2-(1-{2-[3,5-bis(difluoromethyl)-1H-pyrazol-1-yl]ethanethioyl}piperidin-4-yl)-1,3-thiazole-4-carboxylate], the chromatographic logP is reported as 4.23. `Cc1cc(C(F)(F)F)nn1CC(=O)N1CCC(c2nc(C(=O)OCc3ccccc3Br)cs2)CC1` [compound 820, 2-Bromobenzyl 2-(1-{[5-methyl-3-(trifluoromethyl)-1H-pyrazol-1-yl]acetyl}piperidin-4-yl)-1,3-thiazole-4-carboxylate] gave a chromatographic logP of 3.8. Work on `O=C(OC1CCCCC1)c1csc(C2CCN(C(=O)Cn3nc(C(F)F)cc3C(F)F)CC2)n1` [compound 811, Cyclohexyl 2-(1-{[3,5-bis(difluoromethyl)-1H-pyrazol-1-yl]acetyl}piperidin-4-yl)-1,3-thiazole-4-carboxylate] yielded a chromatographic logP of 3.64.
